Activity calls are given as the source filed them. The calls are words filed in the database; no cut-off is given here.
What follows are compounds tested on MCF7 (assay: Cytotoxicity activity against human MCF7 assessed as inhibition of cell growth measured after 72 hrs by MTT assay). Settings: MCF7, 72 h.
Type: functional, cell-based

SMILES	IC50
CC(=O)O[C@H]1CC[C@]2(C)[C@H]3CC[C@]4(C)COC(=O)C[C@H]4[C@@H]3C[C@@H](O)[C@@]2(Br)C1	86.6 µM
CC(=O)O[C@H]1CC[C@]2(C)[C@H]3CC[C@]4(C)COC(=O)C[C@H]4[C@@H]3C[C@@H](O)[C@@]2(O)C1	> 100 µM
C[C@]12CC[C@H]3[C@@H](CC(=O)[C@@]4(O)C[C@@H](O)CC[C@]34C)[C@@H]1CC(=O)OC2	> 100 µM
CC(=O)O[C@H]1CC[C@]2(C)[C@H]3CC[C@]4(C)COC(=O)C[C@H]4[C@@H]3CC(=O)[C@@]2(O)C1	81.8 µM

The compounds below were run on MDA-MB-231 (assay: Cytotoxicity against human MDA-MB-231 cells assessed as cell growth inhibition measured after 72 hrs by MTT assay). Settings: MDA-MB-231, 72 h.
Type: functional, cell-based

SMILES	IC50
CC(=O)O[C@H]1CC[C@]2(C)[C@H]3CC[C@]4(C)COC(=O)C[C@H]4[C@@H]3C[C@@H](O)[C@@]2(Br)C1	26.5 µM
CC(=O)O[C@H]1CC[C@]2(C)[C@H]3CC[C@]4(C)COC(=O)C[C@H]4[C@@H]3C[C@@H](O)[C@@]2(O)C1	> 100 µM
C[C@]12CC[C@H]3[C@@H](CC(=O)[C@@]4(O)C[C@@H](O)CC[C@]34C)[C@@H]1CC(=O)OC2	6.16 µM
CC(=O)O[C@H]1CC[C@]2(C)[C@H]3CC[C@]4(C)COC(=O)C[C@H]4[C@@H]3CC(=O)[C@@]2(O)C1	23.7 µM

These compounds were tested on PC-3 (assay: Cytotoxicity against human PC-3 cells assessed as cell growth inhibition measured after 72 hrs by MTT assay). Settings: PC-3, 72 h.
Type: functional, cell-based

SMILES	IC50
CC(=O)O[C@H]1CC[C@]2(C)[C@H]3CC[C@]4(C)COC(=O)C[C@H]4[C@@H]3C[C@@H](O)[C@@]2(Br)C1	> 100 µM
CC(=O)O[C@H]1CC[C@]2(C)[C@H]3CC[C@]4(C)COC(=O)C[C@H]4[C@@H]3C[C@@H](O)[C@@]2(O)C1	> 100 µM
C[C@]12CC[C@H]3[C@@H](CC(=O)[C@@]4(O)C[C@@H](O)CC[C@]34C)[C@@H]1CC(=O)OC2	> 100 µM
CC(=O)O[C@H]1CC[C@]2(C)[C@H]3CC[C@]4(C)COC(=O)C[C@H]4[C@@H]3CC(=O)[C@@]2(O)C1	> 100 µM

These compounds were tested on HeLa (assay: Cytotoxicity against human Hela cells assessed as cell growth inhibition measured after 72 hrs by MTT assay). Settings: not given.
Type: functional, cell-based

SMILES	IC50
CC(=O)O[C@H]1CC[C@]2(C)[C@H]3CC[C@]4(C)COC(=O)C[C@H]4[C@@H]3C[C@@H](O)[C@@]2(Br)C1	13.6 µM
CC(=O)O[C@H]1CC[C@]2(C)[C@H]3CC[C@]4(C)COC(=O)C[C@H]4[C@@H]3C[C@@H](O)[C@@]2(O)C1	> 100 µM
C[C@]12CC[C@H]3[C@@H](CC(=O)[C@@]4(O)C[C@@H](O)CC[C@]34C)[C@@H]1CC(=O)OC2	33.6 µM
CC(=O)O[C@H]1CC[C@]2(C)[C@H]3CC[C@]4(C)COC(=O)C[C@H]4[C@@H]3CC(=O)[C@@]2(O)C1	> 100 µM

Each compound was assayed on HT-29 (assay: Cytotoxicity against human HT-29 cells assessed as cell growth inhibition measured after 72 hrs by MTT assay). Settings: HT-29, 72 h.
Type: functional, cell-based

SMILES	IC50
CC(=O)O[C@H]1CC[C@]2(C)[C@H]3CC[C@]4(C)COC(=O)C[C@H]4[C@@H]3C[C@@H](O)[C@@]2(Br)C1	> 100 µM
CC(=O)O[C@H]1CC[C@]2(C)[C@H]3CC[C@]4(C)COC(=O)C[C@H]4[C@@H]3C[C@@H](O)[C@@]2(O)C1	86.6 µM
C[C@]12CC[C@H]3[C@@H](CC(=O)[C@@]4(O)C[C@@H](O)CC[C@]34C)[C@@H]1CC(=O)OC2	> 100 µM
CC(=O)O[C@H]1CC[C@]2(C)[C@H]3CC[C@]4(C)COC(=O)C[C@H]4[C@@H]3CC(=O)[C@@]2(O)C1	> 100 µM

The compounds below were run on A549 (assay: Cytotoxicity against human A549 cells assessed as cell growth inhibition measured after 72 hrs by MTT assay). Settings: A549, 72 h.
Type: functional, cell-based

SMILES	IC50
CC(=O)O[C@H]1CC[C@]2(C)[C@H]3CC[C@]4(C)COC(=O)C[C@H]4[C@@H]3C[C@@H](O)[C@@]2(Br)C1	26.1 µM
CC(=O)O[C@H]1CC[C@]2(C)[C@H]3CC[C@]4(C)COC(=O)C[C@H]4[C@@H]3C[C@@H](O)[C@@]2(O)C1	> 100 µM
C[C@]12CC[C@H]3[C@@H](CC(=O)[C@@]4(O)C[C@@H](O)CC[C@]34C)[C@@H]1CC(=O)OC2	> 100 µM
CC(=O)O[C@H]1CC[C@]2(C)[C@H]3CC[C@]4(C)COC(=O)C[C@H]4[C@@H]3CC(=O)[C@@]2(O)C1	> 100 µM

Each compound was assayed on MRC5 (assay: Cytotoxicity against human MRC5 cells assessed as cell growth inhibition measured after 72 hrs by MTT assay). Settings: MRC5, 72 h.
Type: cell-based

SMILES	IC50
CC(=O)O[C@H]1CC[C@]2(C)[C@H]3CC[C@]4(C)COC(=O)C[C@H]4[C@@H]3C[C@@H](O)[C@@]2(Br)C1	> 100 µM
CC(=O)O[C@H]1CC[C@]2(C)[C@H]3CC[C@]4(C)COC(=O)C[C@H]4[C@@H]3C[C@@H](O)[C@@]2(O)C1	> 100 µM
C[C@]12CC[C@H]3[C@@H](CC(=O)[C@@]4(O)C[C@@H](O)CC[C@]34C)[C@@H]1CC(=O)OC2	> 100 µM
CC(=O)O[C@H]1CC[C@]2(C)[C@H]3CC[C@]4(C)COC(=O)C[C@H]4[C@@H]3CC(=O)[C@@]2(O)C1	> 100 µM

What follows are compounds tested on MDA-MB-231 (assay: Induction of apoptosis in human MDA-MB-231 cells assessed as late apoptotic cells by measuring red colour signal measured after 72 hrs by fluorescent double-staining method). Settings: not given.
Type: functional, cell-based

SMILES	Activity
CC(=O)O[C@H]1CC[C@]2(C)[C@H]3CC[C@]4(C)COC(=O)C[C@H]4[C@@H]3C[C@@H](O)[C@@]2(Br)C1	Active
C[C@]12CC[C@H]3[C@@H](CC(=O)[C@@]4(O)C[C@@H](O)CC[C@]34C)[C@@H]1CC(=O)OC2	Active
CC(=O)O[C@H]1CC[C@]2(C)[C@H]3CC[C@]4(C)COC(=O)C[C@H]4[C@@H]3CC(=O)[C@@]2(O)C1	Active

These compounds were tested against Estrogen receptor beta (Homo sapiens) (UniProt Q92731) (assay: Binding affinity to EYFP-tagged human ERbeta-LBD expressed in Saccharomyces cerevisiae FY250 strain assessed as fluorescence intensity at 10 uM incubated for 14 to 16 hrs by fluorescence spectroscopy based fluorescence microscopy relative to control). Settings: time 14-16 hrs.
Chain of Estrogen receptor beta (Homo sapiens) (Q92731 whole entry, the tested form may be a part): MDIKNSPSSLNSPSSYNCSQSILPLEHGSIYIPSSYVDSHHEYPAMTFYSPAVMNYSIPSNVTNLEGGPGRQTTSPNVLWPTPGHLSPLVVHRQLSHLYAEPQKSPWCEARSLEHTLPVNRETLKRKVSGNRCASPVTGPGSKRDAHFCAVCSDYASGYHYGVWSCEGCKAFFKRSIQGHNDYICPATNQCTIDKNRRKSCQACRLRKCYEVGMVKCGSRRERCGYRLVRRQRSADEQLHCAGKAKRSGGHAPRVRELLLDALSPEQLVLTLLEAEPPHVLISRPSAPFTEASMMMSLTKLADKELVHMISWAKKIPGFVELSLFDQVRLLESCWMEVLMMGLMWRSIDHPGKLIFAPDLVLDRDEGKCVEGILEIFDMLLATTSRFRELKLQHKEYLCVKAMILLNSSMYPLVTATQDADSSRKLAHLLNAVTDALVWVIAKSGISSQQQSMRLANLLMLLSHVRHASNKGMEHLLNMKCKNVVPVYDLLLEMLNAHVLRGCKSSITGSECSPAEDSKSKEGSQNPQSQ

SMILES	Activity
CC(=O)O[C@H]1CC[C@]2(C)[C@H]3CC[C@]4(C)COC(=O)C[C@H]4[C@@H]3C[C@@H](O)[C@@]2(O)C1	Active

Source: ChEMBL document CHEMBL4680315, “Synthesis and anticancer potential of novel 5,6-oxygenated and/or halogenated steroidal d-homo lactones” (Bioorg Med Chem, 2021)
